Experimental findings from PubChem BioAssay (NCI) are described below.

Among the test systems are SF-539 CNS; CAKI-1 renal; HCC-2998 colon; SNB-19 CNS; EKVX NSCLC; T-47D breast; OVCAR-5 ovarian; HCT-116 colon; NCI/ADR-RES ovarian; SK-MEL-2 melanoma.
What all share (test): NCI tumour cell line growth inhibition, 48 h

Molecules are shown by their SMILES.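 48-hour exposure; five concentrations; linearly interpolated endpoints. Abbreviation: GI50, concentration required for 50% inhibition of growth. TGI is the concentration that stops growth completely.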

`CC(=O)NC1C(OC[C@@H](CC(=O)N[C@@H](CC(=O)O)CC(=O)N[C@H](CC(=O)N[C@@H](CCCN)CC(=O)N[C@@H](CCCN)CC(=O)N[C@H](CC(N)=O)C(C)C)C(C)C)NC(=O)C[C@@H](N)C(C)C)OC(CO)C(O)C1O` (stereo not given in full): the GI50 in the assay on SF-539 CNS, with CAKI-1 renal, in the assay on HCC-2998 colon, with SNB-19 CNS, in the assay on EKVX NSCLC and in the assay on T-47D breast was more than 100 µM throughout. Moreover, the GI50 with OVCAR-5 ovarian, in the assay with HCT-116 colon, in the assay on NCI/ADR-RES ovarian and in the assay on SK-MEL-2 melanoma was more than 100 µM each time. Further, the TGI with SF-539 CNS, in the assay with CAKI-1 renal, in the assay with HCC-2998 colon, with SNB-19 CNS, in the assay with EKVX NSCLC and in the assay with T-47D breast was more than 100 µM in each case. Further, the TGI with OVCAR-5 ovarian, with HCT-116 colon, in the assay with NCI/ADR-RES ovarian and in the assay on SK-MEL-2 melanoma was more than 100 µM in each case.

As for `ClCc1cccc2c(CCl)cccc12`, the GI50 was 2.86 µM in the assay on SF-539 CNS; 1.48 µM with CAKI-1 renal; 2.48 µM in the assay on HCC-2998 colon; 5.08 µM in the assay on SNB-19 CNS; 2.83 µM with EKVX NSCLC; 1.81 µM with T-47D breast. Also, the GI50 is 12.7 µM in the assay on OVCAR-5 ovarian, 4.18 µM with HCT-116 colon, 2.58 µM in the assay on NCI/ADR-RES ovarian and 20.4 µM with SK-MEL-2 melanoma. Besides, the TGI in the assay with SF-539 CNS turned out to be 11.7 µM; in the assay with CAKI-1 renal, 4.28 µM; in the assay on HCC-2998 colon it was 8.3 µM; in the assay with SNB-19 CNS it was 19.7 µM; in the assay with EKVX NSCLC, 16.6 µM; in the assay on T-47D breast, 10.5 µM. Besides, the TGI with OVCAR-5 ovarian was 27.9 µM; with HCT-116 colon, 19.1 µM; with NCI/ADR-RES ovarian, 12.1 µM; in the assay with SK-MEL-2 melanoma it was 67.4 µM.

`O=C(Oc1cccc(F)c1OC(=O)c1cccc(O)c1)c1cccc(O)c1`: the GI50 in the assay on SF-539 CNS was 16.9 µM; with CAKI-1 renal, 7.47 µM; in the assay on HCC-2998 colon, 27.5 µM; with SNB-19 CNS, 99.6 µM; in the assay on EKVX NSCLC it was 58.7 µM; in the assay on T-47D breast it was 23.1 µM. For the same compound, the GI50 was more than 100 µM in the assay on OVCAR-5 ovarian, 20.2 µM in the assay on HCT-116 colon, 10.3 µM in the assay with NCI/ADR-RES ovarian and more than 100 µM in the assay on SK-MEL-2 melanoma. For the same compound, the TGI in the assay on SF-539 CNS is more than 100 µM; in the assay with CAKI-1 renal it was more than 100 µM; with HCC-2998 colon it was 84.5 µM; with SNB-19 CNS it was more than 100 µM; with EKVX NSCLC it was more than 100 µM; in the assay with T-47D breast, 79.1 µM. Besides, the TGI in the assay on OVCAR-5 ovarian was more than 100 µM; with HCT-116 colon it was more than 100 µM; with NCI/ADR-RES ovarian, 77.6 µM; in the assay on SK-MEL-2 melanoma, more than 100 µM.

Regarding `CCOC(=O)Nc1ccc2c(c1)/C(=N\NC(N)=S)c1ccccc1-2`, the GI50 with SF-539 CNS was 3.75 µM; with CAKI-1 renal it was 3.22 µM; with HCC-2998 colon, 4.77 µM; in the assay with SNB-19 CNS, 9.92 µM; with EKVX NSCLC it was 4.29 µM; with T-47D breast it was 2.48 µM. Moreover, the GI50 was 16.8 µM with OVCAR-5 ovarian, 4.32 µM in the assay with HCT-116 colon, 2.75 µM with NCI/ADR-RES ovarian and 4.95 µM in the assay with SK-MEL-2 melanoma. Moreover, the TGI in the assay with SF-539 CNS was 17.3 µM; in the assay with CAKI-1 renal, 15.2 µM; in the assay on HCC-2998 colon, 22.5 µM; in the assay on SNB-19 CNS it was more than 100 µM; in the assay with EKVX NSCLC it was 41.2 µM; with T-47D breast, 9.84 µM. For the same compound, the TGI amounted to 59.4 µM in the assay with OVCAR-5 ovarian, 50 µM with HCT-116 colon, 9.4 µM in the assay with NCI/ADR-RES ovarian and 15.8 µM with SK-MEL-2 melanoma.
